Measured values: patent US5204343A, “5H-benzodiazepin derivative” (Egis Gyogyszergyar, priority 1990, dated 1993)
“Also recorded” adds a separate entry of the source.

Tests used:
[1] = vs Grandaxin (tofisopam); cited from earlier work
mice [2] = assay: Narcosis potentiating effect on mice (hexobarbital-Na); assay type: in vivo; conditions: for Prolongation of narcosis time: hexobarbital-Na 50 mg/kg i.v.
Method: The prolongation of the narcosis time was related to the sleeping time of the control group treated with a 50 mg/kg i.v. dose of hexobarbital-Na. The test compound was administered […].

Acute toxicity, mouse = assay: Acute toxicity, mouse; parameters: species or system mouse (male, CFLP strain); conditions: in vivo, 14 days observation
Method: (§1) The experiments were carried out on male mice belonging to the CFLP strain (body weight: 20-22 g) and on male rats belonging to the CFY strain. […] The LD50 values were determined with the aid of the method of Lichtfield and Wilcoxon [J. Pharmacol. Exp. Ther. 96, 99 (1949)]. The compounds were suspended in 2 to 5% Tween 80. The animals were treated in volumes of 0.1 ml/10 g (mice) and 0.5 ml/100 g (rats).

rats = assay: Anxiolytic effect on rats ("lick-conflict" test of Vogel); assay type: in vivo; conditions: for Numbers of shocks tolerated: 50 mg/kg i.p., pretreatment 30 minutes, vehicle 5.7 ± 0.6 (formula (I) series), 5.1 ± 0.9 (girisopam series); for number of tolerated shocks, result in words: same dose (50 mg/kg i.p.)
Method: The anxiolytic effect was investigated according to the so-called "lick-conflict" test of Vogel [Psychopharmacol. 21, 1 (1971)]. Time of pretreatment: 30 minutes.

Acute toxicity, rat = assay: Acute toxicity, rat; parameters: species or system rat (male, CFY strain); conditions: in vivo, ip, 14 days observation
Method: as §1

mice [3] = assay: Behaviour test on mice (method of Irwin); assay type: in vivo
From the text: The effects of the compound of formula (I) and the reference compound (girisopam) were examined by the method of Irwin [Psychopharmacol. 13, 222 (1968)].

mice [4] = assay: Antiaggressive effect on mice ("fighting behaviour" test of Tedeschi et al.); assay type: in vivo; conditions: Mus musculus, confidence limit in separate column
From the text: The antiaggressive effect was examined by the method of Tedeschi et al. (the so-called "fighting behaviour" test) [J. Pharm. Exp. Ther. 25, 28 (1959)].

[5] = Acute toxicity, overall statement; assay type: in vivo; conditions: vs girisopam
Method: as §1

[6] = Anxiolytic, antiaggressive and antidepressant effects, overall statement; assay type: in vivo; conditions: vs girisopam
[7] = Muscle relaxant and anticonvulsive effects; conditions: in vivo
[8] = Pharmacological experiments, overall (spectrum, potency, therapeutical index); assay type: in vivo; conditions: vs girisopam

SMILES	Prolongation of narcosis time (mice [2]; 25 mg/kg p.o.)	Prolongation of narcosis time (mice [2]; 50 mg/kg p.o.)	LD50 at 336 h (Acute toxicity, mouse; ip)	LD50 at 336 h (Acute toxicity, mouse; po)	Numbers of shocks tolerated (rats)	number of tolerated shocks, result in words (rats)	LD50 at 336 h (Acute toxicity, rat)	spontaneous motor activity (SMA) after 60 minutes (mice [3]; 100 mg/kg i.p.)	spontaneous motor activity (SMA) after 120 minutes (mice [3]; 100 mg/kg i.p.)	spontaneous motor activity (SMA) after 180 minutes (mice [3]; 100 mg/kg i.p.)	spontaneous motor activity (SMA) after 60 minutes (mice [3]; 200 mg/kg p.o.)	spontaneous motor activity (SMA) after 120 minutes (mice [3]; 200 mg/kg p.o.)	spontaneous motor activity (SMA) after 180 minutes (mice [3]; 200 mg/kg p.o.)	ED50 (mice [4])	further results
COc1cc2c(cc1OC)C(c1cccc(Cl)c1)=NN=C(C)C2 [Girisopam, 1-(3-chlorophenyl)-4-methyl-7,8-dimethoxy-5H-2,3-benzodiazepine, reference compound]	305%	392%	330 mg/kg	1250 mg/kg	19.0 ± 2.3	significant increase on the number of tolerated shocks	670 mg/kg	SMA.dwnarw.	SMA.dwnarw.	SMA.dwnarw.	SMA.dwnarw.	SMA.dwnarw.	SMA.dwnarw.	16 mg/kg	effectiveness compared with Grandaxin [1]: five times more effective than the latter
COc1cc2c(cc1OC)C(c1cccc(Cl)c1)=NN=C(CO)C2 [Compound of formula (I), 1-(3-chlorophenyl)-4-hydroxymethyl-7,8-dimethoxy-5H-2,3-benzodiazepine]	232%	444%	1310 mg/kg	> 2000 mg/kg	13.8 ± 3.7	significant increase on the number of tolerated shocks	> 1500 mg/kg	SMA.dwnarw.	SMA.dwnarw.	SMA.dwnarw.	SMA.dwnarw.	SMA.dwnarw.	SMA.dwnarw.	13.8 mg/kg	Prolongation of narcosis time (mice [2]; 12.5 mg/kg p.o.): 145%; narcosis potentiating activity compared with reference compound (mice [2]; p.o. doses 25 mg/kg and 50 mg/kg, vs girisopam): practically as significant as that of the reference compound (girisopam) or even superior; acute toxicity compared with reference compound [5]: considerably more favourable on both kinds of animals than that of the reference compound; also recorded: their acute toxicity is superior; anxiolytic, antiaggressive and antidepressant effects [6]: as strong anxiolytic, antiaggressive and antidepressant effects as girisopam; muscle relaxant and anticonvulsive effects [7]: do not show muscle relaxant and anticonvulsive effects; spectrum of activity and potency [8]: as favourable as those of the reference compound (girisopam); therapeutical index compared with reference compound [8]: more favourable than the reference compound; decrease of spontaneous motor activity, compared with reference compound (mice [3]; mice, vs girisopam): decreases the spontaneous motor activity on mice to the same degree as the reference compound
